Results from PubChem BioAssay (NCI).
Where “and” joins values, the source holds several entries; their conditions need not be identical. Equal entries are not always repeated.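 In this assay, cells in 96-well plates receive the compound at five concentrations for 48 hours. Endpoints are linearly interpolated between the surrounding concentrations. Abbreviation: GI50, concentration required for 50% inhibition of growth. TGI marks complete inhibition of growth.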

Legend:
Experiment in all cases: DTP human tumour cell line panel, 48 h
NCI-H460 lung = test system: NCI-H460 lung
MDA-MB-435 = test system: MDA-MB-435
MALME-3M melanoma = test system: MALME-3M melanoma
SK-MEL-28 melanoma = test system: SK-MEL-28 melanoma
IGROV1 ovarian = test system: IGROV1 ovarian
EKVX NSCLC = test system: EKVX NSCLC
SF-539 CNS = test system: SF-539 CNS
SF-295 CNS = test system: SF-295 CNS

SMILES	GI50 (NCI-H460 lung)	TGI (NCI-H460 lung) [µM]	GI50 (MDA-MB-435)	TGI (MDA-MB-435)	GI50 (MALME-3M melanoma)	TGI (MALME-3M melanoma)	GI50 (SK-MEL-28 melanoma)	TGI (SK-MEL-28 melanoma)	GI50 (IGROV1 ovarian)	TGI (IGROV1 ovarian) [µM]	GI50 (EKVX NSCLC)	TGI (EKVX NSCLC)	GI50 (SF-539 CNS)	TGI (SF-539 CNS)	GI50 (SF-295 CNS)	TGI (SF-295 CNS)
CC(=O)O.CC(=O)O.CC(=O)O.CC(=O)O.[Rh].[Rh]	37.4 µM	> 100	21.7 µM	55.4 µM	7.06 µM	37.4 µM	32.3 µM	93.8 µM	34 µM	91.1	20.7 µM	44.1 µM	26.4 µM	88.4 µM		
Oc1c(Cl)cc(Cl)c2cccnc12	1.87 µM	6.9	3.84 µM	> 100 µM	2.78 µM	13.1 µM	3.96 µM	29.4 µM	3.72 µM	18.8	2.9 µM	15.2 µM	4.08 µM	71.1 µM	1.96 µM	> 100 µM
OCc1ccc(N2CCCC2)cc1Cl	3.55 µM	28.5	> 100 µM	> 100 µM	27.3 µM	73 µM	> 100 µM	> 100 µM	0.452 µM	2			> 58.7 µM	> 100 µM	1.78 µM	37.4 µM
Nc1ncccc1-c1nc2ccc(-c3ccccc3)nc2n1-c1ccc(C2(N)CCC2)cc1	0.333 µM	2.99	1.35 µM	2.88 µM	0.197 µM	1.84 µM	1.2 µM	2.66 µM	0.0342 µM	0.863	1.92 µM	16.2 µM	0.978 µM	2.52 µM	0.256 µM	2.3 µM
O=c1c(O)cccn1CCCN(CCCn1cccc(O)c1=O)CCn1cccc(O)c1=O	2.36 µM	> 100	3.46 µM	> 100 µM	9.72 µM	85.9 µM	2.31 µM	> 100 µM	23.6 µM	> 100	2.79 µM	> 100 µM	3.12 µM	> 100 µM	3.63 µM	> 100 µM
CCN1C(=O)N(CC)C2C1NN=c1s/c(=C\c3ccc[nH]3)c(=O)n12 (configuration not stated)	0.36 µM	> 41.8	0.0832 µM	0.421 µM	0.546 µM	> 100 µM		> 100 µM	0.838 µM	> 100	0.852 µM	> 100 µM	0.246 µM	1.05 µM	0.334 µM	> 40.3 µM
Brc1cccc(-c2cc(-c3ccc4nccnc4c3)[nH]n2)c1	0.729 µM	> 60	0.0743 µM	0.412 µM	1.3 µM	> 250 µM	4.87 µM	> 250 µM	0.877 µM	> 250	4.24 µM	> 250 µM	0.764 µM	3.28 µM	1.11 µM	> 250 µM
CCN(CC)CCCC(C)Nc1c(-c2ccccc2)cnc2cc(Cl)ccc12 (configuration not stated)	6.99 µM	19.8	2.24 µM	5.31 µM	1.93 µM	4.62 µM	1.82 µM	3.55 µM	11.8 µM	31.4	7.58 µM	40.7 µM	4.36 µM	16.3 µM	2.78 µM	9 µM
N.N.N.N.N.O=S(=O)([O-])C(F)(F)F.O=S(=O)([O-])C(F)(F)F.[Os+8]	5.21 µM	> 100			4.53 µM	19.9 µM	10.8 µM	30.2 µM	21.3 µM	64.1	43.6 µM	> 100 µM	4.26 µM	16.2 µM	8.07 µM	62.8 µM
CCN(C(=O)CN1CCN(c2cc3c(cc2F)c(=O)c(C(=O)O)cn3CC)CC1)c1nc(-c2ccccc2)cs1	0.394 µM	> 100	0.306 µM	> 100 µM	0.214 µM	0.66 µM	0.59 µM	> 100 µM	0.419 µM	> 100	0.372 µM	> 100 µM	0.337 µM	> 100 µM	0.235 µM	0.746 µM
Nc1n[nH]c2ccc([C@@H]3Nc4cc5[nH]ncc5cc4[C@H]4C5CCC(C5)[C@@H]34)cc12 (some centres not stated)	0.368 µM	> 41.4	0.3 µM	6.85 µM			10.5 µM	72.2 µM	0.533 µM	41.8	0.485 µM	> 100 µM	0.269 µM	3.17 µM	0.257 µM	19.2 µM
O=C1/C(=C/c2cccc(Br)c2)COc2ccc(O)c(O)c21	2.14 µM	5.42	1.23 µM	2.76 µM	1.49 µM	3.06 µM	1.75 µM	3.33 µM	0.996 µM	2.68	1.78 µM	3.52 µM	1.58 µM	3.45 µM	2.75 µM	7.39 µM
NCCC(=O)NC(Cc1cnc[nH]1)C(=O)O (configuration not stated)		> 100		> 100 µM		> 100 µM		> 100 µM		> 100		> 100 µM		> 100 µM		> 100 µM
CCSc1nc(N)c(C#N)c(-c2ccco2)c1C#N	33.5 µM	> 100	25.2 µM	66.1 µM			> 100 µM	> 100 µM	36.8 µM	> 100	25.4 µM	> 100 µM	23.3 µM	69.3 µM	47.7 µM	> 100 µM
COc1cc(/C=C/[N+](=O)[O-])cc(OC)c1OC	3.36 µM	12.4	2.8 µM	10.2 µM	2.29 µM	6.06 µM	2.23 µM	4.9 µM	2.45 µM	7.61	13.6 µM	28.4 µM	2.19 µM	4.36 µM	8.52 µM	23.8 µM
C[C@@H]1COCCN1c1cc(-c2ccnn2C)c2ccnc(-c3ccn[nH]3)c2n1	0.0561 µM and 0.128 µM		0.0984 µM and 0.199 µM	2.89 µM and 5 µM	0.179 µM and 0.273 µM	1.52 µM and 3.7 µM	0.361 µM and 0.777 µM	4.2 µM and 16.8 µM	0.0715 µM and 0.195 µM		0.205 µM and 0.349 µM	8.11 µM and > 28.6 µM	0.0704 µM and 0.142 µM	0.547 µM and 1.23 µM	0.057 µM and 0.11 µM	0.648 µM and 1.15 µM
C[C@H]1c2ccccc2CN1CCCOc1cc2c(cc1OCC1CC1)C1(CCCC1)C(N)=N2	1.02 µM	2.1	1.67 µM	5.76 µM	0.888 µM	1.68 µM			2.27 µM	9.11	4.33 µM	10.8 µM	0.922 µM	1.89 µM	1.89 µM	6.71 µM

SMILES	GI50 (NCI-H460 lung)	TGI (NCI-H460 lung) [µM]	GI50 (MDA-MB-435)	TGI (MDA-MB-435)	GI50 (MALME-3M melanoma)	TGI (MALME-3M melanoma)	GI50 (SK-MEL-28 melanoma)	TGI (SK-MEL-28 melanoma)	GI50 (IGROV1 ovarian)	TGI (IGROV1 ovarian) [µM]	GI50 (EKVX NSCLC)	TGI (EKVX NSCLC)	GI50 (SF-539 CNS)	TGI (SF-539 CNS)	GI50 (SF-295 CNS)	TGI (SF-295 CNS)
CCN(CC)C(=O)COc1cc2c(O)c3c(O)c(C)c4c(c13)C(=O)C(C)(OC=CC(OC)C(C)C(OC(C)=O)C(C)C(O)C(C)C(O)C(C)C=CC=C(C)C(=O)N2)O4 (configuration not stated)		> 100				> 100 µM		> 100 µM		> 100		> 100 µM				> 100 µM
CCN(CC)CCC(CNc1c(C)cnc2cc(Cl)ccc12)c1ccc(Cl)cc1 (configuration not stated)	10 µM	25.2									5.46 µM	19.5 µM	1.63 µM	3.31 µM	2.53 µM	10.7 µM
COc1ccc2c(c1)C(=O)c1c-2n(CCCN)c(=O)c2cc([N+](=O)[O-])ccc12	< 0.01 µM	0.0146	3.3 µM	19.5 µM	2.25 µM	7.64 µM			< 0.01 µM	0.192	< 0.01 µM	2.31 µM	< 0.01 µM	< 0.01 µM	< 0.01 µM	12.2 µM
CC1=C(C(=O)Nc2ccc(F)c(Cl)c2)C(c2ccccc2O)NC(=O)N1 (configuration not stated)	96.6 µM	> 100	> 100 µM	> 100 µM			79.7 µM	> 100 µM	50.2 µM	> 100	> 100 µM	> 100 µM	> 100 µM	> 100 µM	94.5 µM	> 100 µM
COc1cc2c(cc1-c1coc3cc(OCC=C(C)C)ccc3c1=O)OCO2		35.1		> 100 µM				> 100 µM		> 100		> 100 µM		> 100 µM		> 100 µM
CCOC1OC(=O)[C@H]2[C@@H]1[C@@H]1CC[C@H]2O1 (some centres not stated)	> 100 µM	> 100	> 100 µM	> 100 µM			0.378 µM	> 100 µM	> 100 µM	> 100	> 100 µM	> 100 µM	> 100 µM	> 100 µM	> 100 µM	> 100 µM
O=C1c2ccccc2C(=O)N1C1(C(=O)NC2(C(=O)O)CCCC2)CCCC1				> 100 µM		> 100 µM		> 100 µM		> 100		> 100 µM				> 100 µM
Cc1cccc2c(Nc3ccc(NS(C)(=O)=O)cc3)c3ccc([N+](=O)[O-])cc3nc12	0.0234 µM	1.76	1.85 µM	7.27 µM	1.21 µM	3.43 µM	1.51 µM	4.38 µM	0.954 µM	3.65			1.07 µM	11.4 µM	0.29 µM	7.21 µM
Cc1oc2c(c1C(=O)N1CC[C@@H](N)C1)C(=O)c1c(c(O)c3ccccc3c1O)C2=O	0.308 µM	2.21	2.58 µM	10.1 µM	1.78 µM	7.62 µM	7.47 µM	20.9 µM	1.27 µM	3.94			2.55 µM	11.7 µM	0.272 µM	1.79 µM
C=C1CC[C@@H]2[C@](C)(COC(C)=O)[C@H](OC(C)=O)CC[C@@]2(C)[C@@H]1CC(Nc1ccc(S(=O)(=O)Nc2nccs2)cc1)C1=CCOC1=O (some centres not stated)	10.7 µM	25.3	3.29 µM	12.7 µM			3.95 µM	15.1 µM	4.54 µM	17.1	14 µM	27 µM	2.35 µM	6.31 µM	13.8 µM	27.2 µM
COc1cc(C2CC(=O)Nc3c2cc(Br)c2ccccc32)cc(Br)c1OC (configuration not stated)	1.66 µM	5	0.247 µM	0.864 µM	1.81 µM	67.2 µM	2.98 µM	> 100 µM	2.61 µM	> 63.9			3.27 µM	> 58.6 µM	1.47 µM	5.4 µM
COc1ccc(-c2ccc(/C=N/n3c(COc4ccccc4Cl)n[nH]c3=S)o2)c([N+](=O)[O-])c1	23.7 µM	52.7	20 µM	46.6 µM			55 µM	> 100 µM	52.7 µM	> 100					22.6 µM	56.5 µM
COc1ccc(Oc2ccccc2NC(=O)CNC(=O)c2cccc3ccccc23)cc1	0.859 µM	> 25			> 25 µM	> 25 µM	2.27 µM	> 25 µM	1.57 µM	> 25	1.37 µM	> 25 µM			0.402 µM	> 25 µM
NC(=O)c1cccc(-c2cc(C(N)=O)ccc2Cl)c1	12.2 µM	54			3.98 µM	> 100 µM	7.17 µM	> 100 µM	4.21 µM	> 100	4.37 µM	> 100 µM	1.65 µM	4.85 µM	2.41 µM	21.2 µM
COc1cccc(C2C(C#N)=C(N)Oc3c2ccc2ccccc32)c1 (configuration not stated)	0.0246 µM	1.18	< 0.01 µM				2.31 µM	24.5 µM	0.0205 µM	14.3	0.0617 µM	19.6 µM	0.0166 µM	0.0695 µM	< 0.01 µM	10.7 µM
CN1CCN(c2cc3nc4ccccc4n(-c4ccc(Cl)cc4)c-3cc2=N)CC1	39.6 µM	> 100	17.5 µM	32.6 µM	17.2 µM	33.1 µM			17.2 µM	53.5	30 µM	> 100 µM	26.6 µM	73.7 µM	23.4 µM	59.5 µM
